One test has as its target T1, rat B1R (Rattus norvegicus, UniProt P97583).
T1 construct: expressed in transfected cells; host or cells: CHO K1 cells (stably transfected)
T1 sequence (P97583 1-337): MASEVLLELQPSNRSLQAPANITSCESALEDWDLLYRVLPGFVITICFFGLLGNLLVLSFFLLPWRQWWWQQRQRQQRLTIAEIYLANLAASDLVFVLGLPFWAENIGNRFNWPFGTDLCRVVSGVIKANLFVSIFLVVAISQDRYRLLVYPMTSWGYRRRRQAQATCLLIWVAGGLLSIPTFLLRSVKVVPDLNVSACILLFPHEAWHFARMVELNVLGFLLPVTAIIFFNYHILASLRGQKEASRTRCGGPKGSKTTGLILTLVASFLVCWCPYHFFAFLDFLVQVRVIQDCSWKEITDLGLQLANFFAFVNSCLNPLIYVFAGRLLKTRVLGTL
In words: Functional investigation on the bradykinin 1 receptor, cell-based fluorescent calcium-mobilization assay (FLIPR), rat. Conditions: 10 μM test substance; CHO K1 cells transfected with rat B1R gene; agonist Des-Arg9-bradykinin at EC80; % of maximum achievable inhibition. The protocol: (§1) The agonistic or antagonistic action of substances can be quantified on the bradykinin 1 receptor (B1R) of the human and rat species with ectopically expressing cell lines (CHO K1 cells) and with the aid of a Ca2+-sensitive dye (Fluo-4) using a fluorescent imaging plate reader (FLIPR). The value in % activation is based on the Ca2+ signal after addition of Lys-Des-Arg9 bradykinin (0.5 nM) or Des-Arg9 bradykinin (100 nM). Antagonists lead to a suppression of the Ca2+ influx following administration of the agonist. The % inhibition in comparison with the maximum achievable inhibition is indicated.
(§2) The agonistic or antagonistic action of substances can be determined on the bradykinin 1 receptor (B1R) of humans and rats by means of a cell-based fluorescent calcium-mobilization assay. According to this assay agonist-induced increase of intracellular free Ca^2+ is quantified by means of a Ca^2+-sensitive dye (Fluo-4 type, Molecular Probes Europe BV, Leiden, Netherlands), in a Fluorescent Imaging Plate Reader (FLIPR, Molecular Devices, Sunnyvale, USA) and/or the Novostar (BMG Labtech GmbH, Offenburg, Germany).
(§3) Chinese hamster ovary cells (CHO K1 cells), which are stably transfected with the human B1R gene (hB1R cells), or with the B1R gene of rats (rB1R cells) are used. For functional investigations these cells are seeded into black 96-well plates with a clear bottom (BD Biosciences, Heidelberg, Germany or Greiner, Frickenhausen, Germany) in a density of 20,000-35,000 cells/well. The cells are incubated overnight in a humidified atmosphere at 37° C. and 5% CO2 in culture medium (hB1R cells: Nutrient Mixture Ham's F12, Gibco Invitrogen GmbH, Karlsruhe, Germany or DMEM, Sigma-Aldrich, Taufkirchen, Germany; rB1R cells: D-MEM/F12, Gibco Invitrogen GmbH, Karlsruhe, Germany) with 10 vol. % FBS (foetal bovine serum, Gibco Invitrogen GmbH, Karlsruhe, Germany). On the following day the cells are loaded with the Ca^2+-sensitive dye Fluo-4-AM (Molecular Probes Europe BV, Leiden, Netherlands):
(§4) Method A: The medium of the cells is removed and cell plates are incubated with loading solution, which contains 2.13 μM Fluo-4-AM, 2.5 mM probenecid (Sigma-Aldrich, Taufkirchen, Germany), and 10 mM HEPES (Sigma-Aldrich, Taufkirchen, Germany) in HBSS buffer (Hank's buffered saline solution, Gibco Invitrogen GmbH, Karlsruhe, Germany) for 60 minutes at 37° C. After the plates are washed twice with HBSS buffer, HBSS buffer supplemented 0.1% BSA (bovine serum albumin; Sigma-Aldrich, Taufkirchen, Germany), 5.6 mM glucose and 0.05% gelatine (Merck KGaA, Darmstadt, Germany) is added. Cell plates are incubated for at least 20 minutes in the dark at room temperature before they are used for the Ca^2+ measurement in the FLIPR or Novostar. Method B: The plates are washed with buffer A (15 mM HEPES, 80 mM NaCl, 5 mM KCl, 1.2 mM CaCl2, 0.7 mM MgSO4, 2 mg/ml glucose, 2.5 mM probenecid) and subsequently loaded with buffer A containing 2.4 μM Fluo-4-AM and 0.025% pluronic F127 (Sigma-Aldrich, Taufkirchen, Germany) for 60 minutes at 37° C. Cell plates are washed twice with buffer A. Then, buffer A supplemented with 0.05% BSA and 0.05% gelatine is added and cell plates are incubated in the dark at room temperature for at least 20 minutes before measurement in the FLIPR or Novostar is started.
(§5) The Ca^2+-dependent fluorescence is measured both before and after the addition of substances (λex=488 nm, λem=540 nm). For quantification of the effect the highest fluorescence intensity (FC, fluorescence counts) over time is given.
(§6) The FLIPR protocol consists of two substance additions, done within the instrument while continuously monitoring the Ca^2+-dependent fluorescence at 540 nm. When the Novostar was used, one addition had to be done outside the instrument. First of all test substances (10 μM) are pipetted onto the cells and the intracellular Ca^2+ rise is compared with the control (hB1R: Lys-Des-Arg9-bradykinin >=50 nM; rB1R: Des-Arg9-bradykinin >=1 μM). […]

In the next test the target is T2, human B1R (Homo sapiens, UniProt P46663).
T2 construct: expressed in transfected cells; host or cells: CHO K1 cells (stably transfected)
T2 sequence (P46663 1-353): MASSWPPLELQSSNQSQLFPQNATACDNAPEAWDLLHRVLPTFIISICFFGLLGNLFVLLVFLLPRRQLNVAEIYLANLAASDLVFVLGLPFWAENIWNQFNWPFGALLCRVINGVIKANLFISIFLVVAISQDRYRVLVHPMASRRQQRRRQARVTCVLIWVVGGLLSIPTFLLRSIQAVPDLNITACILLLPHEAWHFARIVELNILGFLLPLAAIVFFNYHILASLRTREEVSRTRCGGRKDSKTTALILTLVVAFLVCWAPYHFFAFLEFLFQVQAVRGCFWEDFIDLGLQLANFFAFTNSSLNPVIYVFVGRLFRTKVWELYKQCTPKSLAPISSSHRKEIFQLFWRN
Kind of test: Functional investigation on the bradykinin 1 receptor, cell-based fluorescent calcium-mobilization assay (FLIPR), human. The settings on record: 10 μM test substance; CHO K1 cells transfected with human B1R gene; agonist Lys-Des-Arg9-bradykinin at EC80; % of maximum achievable inhibition. The protocol:
as §1, §2, §3, §4, §5, §6

Data on 8 compounds can be found in patent publication US20120058999A1, “Substituted Tetrahydropyrrolopyrazine Compounds” (Gruenenthal GmbH, priority 2010, published 2012).

For the compound `CN1CCN([C@@H]2CCC[C@H](N(C)C(=O)CCC3c4cccn4CCN3S(=O)(=O)c3cccc(C(F)(F)F)c3)C2)CC1` (relative stereo) [CC-05, N-Methyl-N-[cis-3-(4-methyl-piperazin-1-yl)-cyclohexyl]-3-[2-[[3-(trifluoromethyl)phenyl]sulfonyl]-1,2,3,4-tetrahydro-pyrrolo[1,2-a]pyrazin-1-yl]-propionamide], the inhibition at 10 µM on rat B1R is 91%; on human B1R, 43%.

With `COc1cc(C)c(S(=O)(=O)N2CCn3cccc3C2COCC(=O)N[C@H]2CCC[C@@H](N3CCN(C)CC3)C2)c(C)c1` (relative stereo) [CC-06, 2-[[2-[(4-Methoxy-2,6-dimethyl-phenyl)sulfonyl]-1,2,3,4-tetrahydro-pyrrolo[1,2-a]pyrazin-1-yl]-methoxy]-N-[cis-3-(4-methyl-piperazin-1-yl)-cyclohexyl]-acetamide], the inhibition at 10 µM came to 100% at rat B1R and 96% at human B1R.

Take `CN1CCN(C2CC(N(C)C(=O)CCC3c4cccn4CCN3S(=O)(=O)c3cccc(C(F)(F)F)c3)C2)CC1` (stereo not shown) [CC-61, N-Methyl-N-[3-(4-methyl-piperazin-1-yl)-cyclobutyl]-3-[2-[[3-(trifluoromethyl)phenyl]sulfonyl]-1,2,3,4-tetrahydro-pyrrolo[1,2-a]pyrazin-1-yl]-propionamide]: the inhibition at 10 µM on rat B1R came out at 14%; on human B1R, 12%.

For `COc1ccc2cc(S(=O)(=O)N3CCn4cccc4C3CC(=O)N(C)[C@H]3CCC[C@@H](N4CCN(C)CC4)C3)ccc2c1` (relative stereo) [CC-04, 2-[2-[(6-Methoxy-naphthalen-2-yl)sulfonyl]-1,2,3,4-tetrahydro-pyrrolo[1,2-a]pyrazin-1-yl]-N-methyl-N-[cis-3-(4-methyl-piperazin-1-yl)-cyclohexyl]-acetamide], the figures for the inhibition at 10 µM at rat B1R and at human B1R were 103% and 100%, respectively.

As to `COc1cc(C)c(S(=O)(=O)N2CCn3cccc3C2CCCC(=O)N(C)C2CC(N3CCN(C)CC3)C2)c(C)c1` (stereo not shown) [CC-59, 4-[2-[(4-Methoxy-2,6-dimethyl-phenyl)sulfonyl]-1,2,3,4-tetrahydro-pyrrolo[1,2-a]pyrazin-1-yl]-N-methyl-N-[3-(4-methyl-piperazin-1-yl)-cyclobutyl]-butyramide], the inhibition at 10 µM at rat B1R was 97%; at human B1R, 80%.

As to `COc1cc(C)c(S(=O)(=O)N2CCn3cccc3C2COCC(=O)N(C)[C@H]2CCC[C@@H](N3CCN(C)CC3)C2)c(C)c1` (stereo partly drawn) [SC-01, 2-[[2-[(4-Methoxy-2,6-dimethyl-phenyl)sulfonyl]-1,2,3,4-tetrahydro-pyrrolo[1,2-a]pyrazin-1-yl]-methoxy]-N-methyl-N-[(1S,3R)-3-(4-methyl-piperazin-1-yl)-cyclohexyl]-acetamide], the inhibition at 10 µM on rat B1R was 103%; at human B1R, 100%.

On to `COc1cc(C)c(S(=O)(=O)N2CCn3cccc3C2CCCC(=O)N(C)[C@H]2CCC[C@@H](N3CCN(C)CC3)C2)c(C)c1` (relative stereo) [CC-02, 4-[2-[(4-Methoxy-2,6-dimethyl-phenyl)sulfonyl]-1,2,3,4-tetrahydro-pyrrolo[1,2-a]pyrazin-1-yl]-N-methyl-N-[cis-3-(4-methyl-piperazin-1-yl)-cyclohexyl]-butyramide], for which the results for the inhibition at 10 µM on rat B1R and on human B1R were 104% and 87%, respectively.

As to `COc1ccc2cc(S(=O)(=O)N3CCn4cccc4C3CC(=O)N(C)C3CC(N4CCN(C)CC4)C3)ccc2c1` (stereo not shown) [CC-60, 2-[2-[(6-Methoxy-naphthalen-2-yl)sulfonyl]-1,2,3,4-tetrahydro-pyrrolo[1,2-a]pyrazin-1-yl]-N-methyl-N-[3-(4-methyl-piperazin-1-yl)-cyclobutyl]-acetamide], the inhibition at 10 µM is 106% on rat B1R and 99% at human B1R.

What is called inhibition is the change of the read-out against control, counted positive when it falls.
